“Also recorded” adds a separate entry of the source.

Experiment [1] deals with splenocytes from BALB/c mice. The experiment can be described thus: In vitro proliferation assay of splenocytes (3H-thymidine uptake). Type of experiment: cell-based, mouse. The following applies: for mitogenic activity of rTcPA45 in cultures supplemented with substrate: 50 μg/ml rTcPA45, increasing amounts of L- or D-proline, 3 mM to 50 mM; for cell proliferation with substrate alone: 50 mM L- or D-proline alone; for mitogenic activity of rTcPA45 pre-incubated with inhibitor: 50 μg/ml rTcPA45 pre-incubated 10 min at 37° C. with 1 mM inhibitor; for 3H-thymidine uptake: after 48 h, ConA 10 μg/ml, LPS 5 μg/ml, 5×10^4 cells/well. Here is the method: Briefly, freshly recovered splenocytes from 8 week old male Balb/c mice seeded at a concentration of 5×10^4 cells/well were incubated for 24, 48 and 72 h in 5% FCS RPMI-1640 medium. A 16 h ^3H-thymidine pulse at 1 μCi/well was performed before harvesting. ^3H-Thymidine uptake was determined in a beta-plate liquid scintillation counter (LKB-Wallac). All points were done in triplicate and the corresponding standard deviation calculated. For comparison, ^3H-thymidine uptake after 48 h in the presence of ConA (10 μg/ml) and LPS (5 μg/ml) was 32000 c.p.m. and 3500 c.p.m., respectively. T-cell depletion was performed by incubating freshly recovered spleen cells for 30 min at 37° C. in the presence of anti-Thy 1.2 monoclonal antibody (Cedarlane) and rabbit complement (Cedarlane). In order to rule out a possible mitogenic effect due to LPS contamination in samples, proliferation assays were also performed on freshly recovered splenocytes from the LPS non-responder mouse strain C3H/Hej. Same levels of proliferation were verified. Balb/c mice were purchased from Charles River, France. C3H/Hej mice were maintained in our animal facilities.
In vitro proliferation is accomplished using freshly recovered splenocytes from BALB/c mice seeded at a density of 5×10^4 cells/well and incubated for 24, 48 and 72 h with increasing concentrations of total parasite supernatants or recombinant TcPa45 protein or other mitogen (0.07-200 μg/ml) with 0.5 μg/ml of the HPLC fractions, or with the conventionally used mitogens concanavalin A (10 μg/ml) and lipopolysaccharide (5 μg/ml) in 5% FCS in RPMI-1640 complete medium. T-cell depletion is accomplished by incubating freshly recovered spleen cells for 30 min. at 37° C. in the presence of monoclonal antibodies against Thy 1.2 and rabbit complement (Cedarlane, Le Perray en Yvelines, France). Analysis of proliferative activity of total splenocytes (5×10^4 cells/well) in the presence of 50 μg/ml enzymatically active rTcPA45 or other mitogen is also compared with the proliferation obtained using the same amounts of rTcPA45 protein or other mitogen lacking racemase activity (by heating for 10 min. at 30° C. or by long term storage at 4° C.). Inhibition of proliferation is obtained by adding to the splenocyte cultures 50 μg/ml rTcPA45 or other mitogen pre-incubated for 10 min. at 37° C. with 1 mM inhibitor, either specific (pyrrole-2-carboxylic acid) or nonspecific (iodoacetamide or iodoacetate). Competitive assays of proliferative activity by 50 μg/ml rTcPA45 or other mitogen are done by adding increasing concentrations of specific substrates i.e., proline racemase substrates (L- or D-proline) for the mitogen rTcPA45 ranging from 3 mM to 50 mM. Controls include the incubation of splenocytes (5×10^4 cells/well) with substrate alone, i.e., 50 mM L- or D-proline in RPMI medium alone for prline racemase. Cultures are collected after a 16-hour pulse or 1 μCi/well ^3H-thymidine uptake was determined in a beta-plate liquid scintillation counter (LKB-Wallac, Orsay, France). All data points are obtained in triplicate and the corresponding standard deviation is calculated.
5×10^5 naive spleen cells/well (96 well plate) were stimulated in vitro with different doses of rTcPA45 (ranging in FIG. 4b from 0.8 to 200 μg/ml final) for 24, 48 and 72 h, at 37° C., 5% CO2. Cultures were pulsed with ^3H-Thymidine (1 μCi/well) for 16-18 h before harvesting. ^3H-thymidine incorporation was obtained after counting using a beta-plate. Results present arithmetic means of c.p.m. (counts/minute) from 6 wells/dose of rTcPA45 or wells containing medium alone (+/−SD of the means).

In the next experiment the target is T1, rTcPA45 proline racemase (Trypanosoma cruzi, UniProt Q4DA80).
T1 construct: 6xHis (C); made in house; host or cells: E. coli (pET28b(+))
The class given is biochemical. The following applies: inhibitors 6 mM to 100 mM. Here is the method: To investigate the genomic organization and transcription of the Tc45 gene, Southern and Northern blot analyses were done. FIG. 4 depicts the results of characterization of rTcPA45 activities. FIG. 4, part a, is an 8% SDS-PAGE gel of rTcPA45 (Coomasie blue staining). Part b depicts the proliferative activity of total splenocytes (5×10^4 cells/well) in the presence of increasing concentrations of rTcPA45 (μg/ml). […] Reaction conditions were: 0.2 M Na-acetate/25 mM β-mercaptoethanol buffer, pH6, rTcPA45 (3 μg/ml), 30 min incubation at 37° C. in 500 μl. The reaction was stopped by incubating for 10 min at 80° C. […] Reactions were carried out for 30 min at 37° C. and stopped for 5 min at 80° C. All reagents and inhibitors were purchased from Sigma. The shift in optical rotation was measured in a Polarimeter 241 MC (Perkin Elmer).
A suitable test for testing an active molecule inhibiting the polypeptide according to the invention is performed as follows: • The recombinant amino acid purified or native racemase is diluted in sodium acetate buffer or Tris or phophate on Hepes buffer at 3 micrograms per 500 microliters in the presence of 20 millmolar of beta mercepto ethanol and 10 to 80 millimolar of L or D substrate and containing various concentrations of active molecule to be tested. This reaction is incubated for 30 minutes at 37° C. and stopped by heating at 80° C. Variations in optical rotation are measured by a polarimeter.
3 μg of rTcPA45 was diluted in 500 μl of buffer (0.2M NaOAc, 20 mM β-mercaptoethanol, pH6.0) containing different concentrations of the substrate (10-80 mM or L- or D-proline). (See FIG. 4c.) The reaction was incubated for 30-60 minutes at 37° C. in a water bath, followed by heat inactivation of the enzyme for 10 minutes at 80° C. Each sample is diluted to 1.5 ml with water and the mixture submitted to measurement of optical rotation using a polarimeter, at 365 nm. A sample without enzyme is used as a control. […]
The percent of racemization of different concentrations of L-proline, D-proline, L-hydroxy-proline and D-hydroxy-proline substrates was calculated by incubating a 500-μl mixture of 3 μg TcPA45 and 10-80 mM substrate in 0.2 M sodium acetate and 25 mM β-mercaptoethanol, pH 6, for 30 min at 37° C. […] Water (1 ml) was then added, and the optical rotation was measured in polarimeter 241 MC (Perkin Elmer, Montignyle Bretonneux, France) at a wavelength of 365 nm, in a cell with a path length of 10 cm. […] The percent racemization of 80 mM L-proline as a function of pH was determined using 0.2 M sodium acetate, potassium phosphate and Tris-HCl buffers containing 25 mM β-mercaptoethanol; reactions were incubated for 30 min at 37° C. as described above. […]

T1 sequence (Q4DA80 30-423): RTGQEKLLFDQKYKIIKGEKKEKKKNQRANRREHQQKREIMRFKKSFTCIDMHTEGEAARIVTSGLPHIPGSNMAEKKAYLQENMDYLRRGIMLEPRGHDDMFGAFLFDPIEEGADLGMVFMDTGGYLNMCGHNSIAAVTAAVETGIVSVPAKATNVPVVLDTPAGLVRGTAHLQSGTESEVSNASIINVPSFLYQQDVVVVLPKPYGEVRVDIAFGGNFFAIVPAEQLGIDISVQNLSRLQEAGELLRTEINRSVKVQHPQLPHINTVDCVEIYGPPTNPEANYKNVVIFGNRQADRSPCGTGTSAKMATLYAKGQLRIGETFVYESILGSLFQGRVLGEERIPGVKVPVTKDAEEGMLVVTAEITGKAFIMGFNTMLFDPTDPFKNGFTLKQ

For `O=C(O)[C@H]1CCCN1` [D-proline], in experiment [1], the “mitogenic activity of rTcPA45 in cultures supplemented with substrate” value was “affected considerably; also recorded: decrease” and the “cell proliferation with substrate alone” value is “no cell proliferation”. On to `O=C(O)[C@@H]1CCCN1` [L-proline], for which, in experiment [1], the “mitogenic activity of rTcPA45 in cultures supplemented with substrate” value is “affected considerably; also recorded: decrease” and the “cell proliferation with substrate alone” value is on record as “no cell proliferation”.

Take `NC(=O)CI` [iodoacetamide]: the “mitogenic activity of rTcPA45 pre-incubated with inhibitor” value (from here on “mitogenic activity … with inhibitor”) in experiment [1] was “abolished”. Also, the “inhibition of rTcPA45 enzymatic activity (racemization of 80 mM L-proline)” value (from here on “inhibition of rTcPA45 enzymatic activity”) at rTcPA45 proline racemase was “inhibited to different extents”.

In the case of `O=C(O)CI` [iodoacetate], in experiment [1], the “mitogenic activity … with inhibitor” value was “abolished”. The “inhibition of rTcPA45 enzymatic activity” value on rTcPA45 proline racemase is “inhibited to different extents”.

Regarding `O=C(O)/C=C\C(=O)O` [maleic acid], on rTcPA45 proline racemase, the “inhibition of rTcPA45 enzymatic activity” value is “inhibited to different extents”.

Turning to `O=C(O)c1ccc[nH]1` [pyrrole-2-carboxylic acid], the “mitogenic activity … with inhibitor” value in experiment [1] is “abolished”. On rTcPA45 proline racemase, the “inhibition of rTcPA45 enzymatic activity” value is on record as “inhibited to different extents”.

As to concanavalin A [ConA], the 3H-thymidine uptake is 32000 c.p.m in experiment [1] and 32,000 c.p.m in experiment [1] (listed as concavalin A). lipopolysaccharide [LPS]: the 3H-thymidine uptake in experiment [1] is 3500 c.p.m; in experiment [1] (listed as lipopolysaccharide), 3,500 c.p.m.

Values taken from patent US8168770B2, “Cloning, sequencing and expression of a gene encoding an eukaryotic amino acid racemase, and diagnostic, therapeutic, and vaccination applications of parasite and viral mitogens” (priority 1999, dated 2012).
